Data as given in ChEMBL document CHEMBL4052698, “Design, synthesis and SAR of a novel series of heterocyclic phenylpropanoic acids as GPR120 agonists” (Bioorg Med Chem Lett, 2017).
Calls of active or inactive are those of the source. The calls are words filed in the database; no cut-off is given here.

What was measured:
[1] = Stability in rat liver microsomes assessed as parent compound remaining after 10 mins; format: ADME, microsome; conditions: read-out: Stability
[2] = Stability in mouse liver microsomes assessed as parent compound remaining after 10 mins; format: ADME, microsome; conditions: read-out: Stability
[3] = Stability in human liver microsomes assessed as parent compound remaining after 10 mins; format: ADME, microsome; conditions: read-out: Stability
[4] = molecular target: T1, Free fatty acid receptor 4 (Homo sapiens, UniProt Q5NUL3); assay: Agonist activity at human GPR120 expressed in CHO-K1 cells assessed as […] by DiscoveRx PathHunter beta-arrestin assay; format: functional, cell-based
T1 sequence (Q5NUL3 whole entry): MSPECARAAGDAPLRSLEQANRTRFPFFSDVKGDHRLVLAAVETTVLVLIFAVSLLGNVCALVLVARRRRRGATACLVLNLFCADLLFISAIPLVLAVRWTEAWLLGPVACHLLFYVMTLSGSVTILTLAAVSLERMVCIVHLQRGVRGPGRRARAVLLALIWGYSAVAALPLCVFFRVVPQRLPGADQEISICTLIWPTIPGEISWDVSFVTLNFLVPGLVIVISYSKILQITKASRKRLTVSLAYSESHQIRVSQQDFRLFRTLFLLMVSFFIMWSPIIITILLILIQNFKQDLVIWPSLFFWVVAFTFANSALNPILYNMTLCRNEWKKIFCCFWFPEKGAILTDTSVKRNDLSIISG

[5] = molecular target: Free fatty acid receptor 4 (Homo sapiens, UniProt Q5NUL3); assay: Agonist activity at human GPR120 short splice variant expressed in HEK293 cells assessed as increase in intracellular calcium flux by Fluo-4 NW dye based FLIPR assay; format: functional, cell-based
[6] = Half life in C57/black 6J mouse at 20 mg/kg dosed as oral gavage by LC-MS/MS method; format: ADME, organism-based; conditions: in vivo
[7] = (§1) Oral bioavailability in C57/black 6J mouse at 20 mg/kg by LC-MS/MS method; format: ADME, organism-based; conditions: C57/black 6J, in vivo
[8] = Protein binding in human plasma; format: ADME, cell-free; conditions: read-out: PPB (converted)
Mus musculus [9] = assay: Antidiabetic activity in C57bl/6J mouse assessed as reduction in blood glucose delta AUC level at 10 mg/kg, po dosed 30 mins before glucose challenge and measured 90 mins post glucose injection by intraperitoneal glucose tolerance test; format: functional; design: scale not given: the % may be the effect or the level left
[10] = Cmax in C57/black 6J mouse at 20 mg/kg dosed as oral gavage by LC-MS/MS method; format: ADME, organism-based; design: dose 20 mg/kg, route oral; conditions: in vivo
Mus musculus [11] = assay: Antidiabetic activity in C57bl/6J mouse assessed as reduction in blood glucose delta AUC level at 3 mg/kg, po dosed 30 mins before glucose challenge and measured 90 mins post glucose injection by intraperitoneal glucose tolerance test; format: functional; design: scale not given: the % may be the effect or the level left
[12] = AUClast in C57/black 6J mouse at 20 mg/kg dosed as oral gavage by LC-MS/MS method; format: ADME, organism-based; design: dose 20 mg/kg, route oral, time 0 - last; conditions: in vivo
[13] = Protein binding in rat plasma; format: ADME, cell-free; conditions: read-out: PPB (converted)
Mus musculus [14] = assay: Antidiabetic activity in C57bl/6J mouse assessed as reduction in blood glucose level at 1 to 10 mg/kg, po dosed 30 mins before glucose challenge by intraperitoneal glucose tolerance test; format: functional, organism-based
Mus musculus [15] = assay: Antidiabetic activity in C57bl/6J mouse assessed as reduction in blood glucose delta AUC level at 1 mg/kg, po dosed 30 mins before glucose challenge and measured 90 mins post glucose injection by intraperitoneal glucose tolerance test; format: functional; design: scale not given: the % may be the effect or the level left
[16] = Clearance in C57/black 6J mouse at 5 mg/kg, iv by LC-MS/MS method; format: ADME, organism-based; conditions: in vivo
[17] = Protein binding in mouse plasma; format: ADME, cell-free; conditions: read-out: PPB (converted)
Mus musculus [18] = assay: Antidiabetic activity in C57bl/6J mouse assessed as reduction in blood glucose delta AUC level at 1 to 10 mg/kg, po dosed 30 mins before glucose challenge by intraperitoneal glucose tolerance test; format: functional, organism-based
[19] = Volume of distribution at steady state in C57/black 6J mouse at 5 mg/kg, iv by LC-MS/MS method; format: ADME, organism-based; conditions: in vivo, read-out: Vdss
Mus musculus [20] = assay: Antidiabetic activity in C57bl/6J mouse assessed as reduction in blood glucose level at 10 mg/kg, po dosed 30 mins before glucose challenge by intraperitoneal glucose tolerance test; format: functional, organism-based
Mus musculus [21] = assay: as §1; format: ADME, organism-based; conditions: in vivo

Structure (SMILES): O=C(O)CCc1cc(F)c(OCc2c(-c3ccc(F)cc3)noc2C(F)(F)F)c(F)c1
- remaining at 10 min [1]: 66.2%
- remaining at 10 min [2]: 119%
- remaining at 10 min [3]: 103%
- EC50 [4]: 230 nM
- EC50 [5]: 150 nM

Structure (SMILES): CCc1ccc(-c2noc(C(F)(F)F)c2COc2c(F)cc(CCC(=O)O)cc2F)cc1
- half-life [6]: 1.03 h
- bioavailability [7]: 78.7%
- fraction unbound [8]: 0.0006
- Activity (Mus musculus [9]): -54%
- Cmax [10]: 7670 ng/mL
- Activity (Mus musculus [11]): -35%
- AUC(0-t) [12]: 9660 ng·h/mL
- fraction unbound [13]: 0.0011
- Activity (Mus musculus [14]): Dose-dependent effect
- Activity (Mus musculus [15]): 30%
- clearance [16]: 27.1 mL/min/kg
- fraction unbound [17]: 0.0008
- Activity (Mus musculus [18]): Dose-dependent effect
- EC50 [4]: 60 nM
- EC50 [5]: 57 nM
- Vd [19]: 0.898 L/kg

Structure (SMILES): Cc1c(CCC(=O)O)ccc(OCc2nnnn2-c2ccc(Cl)cc2)c1C
- EC50 [5]: > 5000 nM

Structure (SMILES): Cc1c(CCC(=O)O)ccc(OCc2cccn2-c2ccc(Cl)cc2)c1C
- EC50 [4]: 930 nM
- EC50 [5]: 145 nM

Structure (SMILES): Cc1onc(-c2ccc(Cl)cc2)c1COc1ccc(CCC(=O)O)c(C)c1C
- EC50 [4]: 760 nM
- EC50 [5]: 270 nM

Structure (SMILES): O=C(O)CCc1cc(F)c(OCc2c(-c3ccc(Cl)cc3)noc2C(F)(F)F)c(F)c1
- half-life [6]: 2.07 h
- bioavailability [7]: 93%
- fraction unbound [8]: 0.0007
- Activity (Mus musculus [9]): -56%
- remaining at 10 min [1]: 98.9%
- Cmax [10]: 12700 ng/mL
- Activity (Mus musculus [11]): 23%
- AUC(0-t) [12]: 43200 ng·h/mL
- fraction unbound [13]: 0.0019
- remaining at 10 min [2]: 105%
- remaining at 10 min [3]: 113%
- Activity (Mus musculus [15]): 20%
- clearance [16]: 7.18 mL/min/kg
- fraction unbound [17]: 0.0014
- Activity (Mus musculus [20]): Active
- EC50 [4]: 160 nM
- EC50 [5]: 71 nM
- Vd [19]: 1.26 L/kg

Structure (SMILES): Cc1c(CCC(=O)O)ccc(OCc2ccccc2-c2ccc(Cl)cc2)c1C
- EC50 [5]: 220 nM

Structure (SMILES): O=C(O)CCc1ccc(OCc2c(-c3ccccc3)noc2C(F)(F)F)cc1
- EC50 [5]: 150 nM

Structure (SMILES): Cc1c(CCC(=O)O)ccc(OCc2ncoc2-c2ccc(Cl)cc2)c1C
- EC50 [5]: 1750 nM

Structure (SMILES): O=C(O)CCc1cc(F)c(OCc2c(-c3ccc(C4CC4)cc3)noc2C(F)(F)F)c(F)c1
- EC50 [5]: 170 nM

Structure (SMILES): O=C(O)CCc1cc(F)c(OCc2c(-c3ccc(Br)cc3)noc2C(F)(F)F)c(F)c1
- remaining at 10 min [1]: 72.3%
- remaining at 10 min [2]: 94.1%
- remaining at 10 min [3]: 105%
- EC50 [5]: 120 nM

Structure (SMILES): CCc1ccc(-c2sncc2COc2ccc(CCC(=O)O)c(C)c2C)cc1
- EC50 [5]: 190 nM

Structure (SMILES): Cc1ccc(-c2noc(C(F)(F)F)c2COc2c(F)cc(CC(C)C(=O)O)cc2F)cc1 (centres undefined)
- remaining at 10 min [1]: 54.3%
- remaining at 10 min [2]: 86.3%
- remaining at 10 min [3]: 93%
- EC50 [4]: 160 nM
- EC50 [5]: 110 nM

Structure (SMILES): Cc1noc(-c2ccc(Cl)cc2)c1COc1ccc(CCC(=O)O)c(C)c1C
- EC50 [4]: 810 nM
- EC50 [5]: 350 nM

Structure (SMILES): CCc1ccc(-n2nccc2COc2ccc(CCC(=O)O)c(C)c2C)cc1
- EC50 [4]: 1150 nM
- EC50 [5]: 520 nM

Structure (SMILES): O=C(O)CCc1cc(F)c(OCc2c(-c3ccccc3)noc2C(F)(F)F)c(F)c1
- half-life [6]: 2.58 h
- F (Mus musculus [21]): 49.5%
- fraction unbound [8]: 0.0017
- remaining at 10 min [1]: 110%
- fraction unbound [13]: 0.0122
- remaining at 10 min [2]: 93%
- remaining at 10 min [3]: 95.6%
- fraction unbound [17]: 0.0047
- EC50 [4]: 69 nM
- EC50 [5]: 170 nM
- Vd [19]: 0.336 L/kg

Structure (SMILES): CCc1ccc(-c2ccsc2COc2ccc(CCC(=O)O)c(C)c2C)cc1
- EC50 [4]: 900 nM
- EC50 [5]: 160 nM

Structure (SMILES): Cc1c(CCC(=O)O)ccc(OCc2nccn2-c2ccc(Cl)cc2)c1C
- EC50 [5]: > 5000 nM

Structure (SMILES): Cc1c(CCC(=O)O)ccc(OCc2csnc2-c2ccc(Cl)cc2)c1C
- EC50 [5]: 217 nM

Structure (SMILES): O=C(O)CCc1cc(F)c(OCc2c(-c3ccc(C(F)(F)F)cc3)noc2C(F)(F)F)c(F)c1
- EC50 [4]: 190 nM
- EC50 [5]: 340 nM

Structure (SMILES): O=C(O)CCc1ccc(OCc2c(-c3ccc(Cl)cc3)noc2C(F)(F)F)c(F)c1F
- remaining at 10 min [1]: 106%
- remaining at 10 min [2]: 109%
- remaining at 10 min [3]: 99.6%
- EC50 [4]: 140 nM
- EC50 [5]: 670 nM

Structure (SMILES): O=C(O)CCc1cc(F)c(OCc2c(-c3ccc(F)cc3Cl)noc2C(F)(F)F)c(F)c1
- remaining at 10 min [1]: 92%
- remaining at 10 min [2]: 99.3%
- remaining at 10 min [3]: 108%
- EC50 [4]: 290 nM
- EC50 [5]: 71 nM

Structure (SMILES): Cc1ccc(-c2noc(C(F)(F)F)c2COc2c(F)cc(CCC(=O)O)cc2F)cc1
- remaining at 10 min [1]: 37.9%
- remaining at 10 min [2]: 84.5%
- remaining at 10 min [3]: 64.4%
- EC50 [4]: 180 nM
- EC50 [5]: 120 nM

Structure (SMILES): Cc1c(CCC(=O)O)ccc(OCc2ccnn2-c2ccc(Cl)cc2)c1C
- EC50 [4]: 2030 nM
- EC50 [5]: 610 nM

Structure (SMILES): O=C(O)CCc1ccc(OCc2c(-c3ccc(Cl)cc3)noc2C(F)(F)F)cc1C(F)(F)F
- EC50 [5]: 1450 nM

Structure (SMILES): Cc1c(CCC(=O)O)ccc(OCc2scnc2-c2ccc(Cl)cc2)c1C
- EC50 [5]: 81 nM

Structure (SMILES): CCCc1onc(-c2ccc(Cl)cc2)c1COc1ccc(CCC(=O)O)c(C)c1C
- remaining at 10 min [1]: 38.4%
- remaining at 10 min [2]: 48.3%
- remaining at 10 min [3]: 79.3%
- EC50 [4]: 130 nM
- EC50 [5]: 1060 nM

Structure (SMILES): Cc1c(CCC(=O)O)ccc(OCc2c(-c3ccc(Cl)cc3)noc2C2CC2)c1C
- EC50 [4]: 1090 nM
- EC50 [5]: 1070 nM

Structure (SMILES): Cc1c(CCC(=O)O)ccc(OCc2c(-c3ccc(Cl)cc3)noc2C(F)(F)F)c1C
- remaining at 10 min [1]: 68%
- remaining at 10 min [2]: 91.2%
- remaining at 10 min [3]: 80.9%
- EC50 [4]: 160 nM
- EC50 [5]: 680 nM

Structure (SMILES): Cc1c(CCC(=O)O)ccc(OCc2cnnn2-c2ccc(Cl)cc2)c1C
- EC50 [5]: > 5000 nM

Structure (SMILES): CCc1onc(-c2ccc(Cl)cc2)c1COc1ccc(CCC(=O)O)c(C)c1C
- remaining at 10 min [1]: 45.6%
- remaining at 10 min [2]: 50.2%
- remaining at 10 min [3]: 66.3%
- EC50 [4]: 400 nM
- EC50 [5]: 740 nM

Structure (SMILES): CCc1ccc(-c2cscc2COc2ccc(CCC(=O)O)c(C)c2C)cc1
- EC50 [5]: 142 nM

Structure (SMILES): Cc1c(CCC(=O)O)ccc(OCc2c(-c3ccc(Cl)cc3)noc2-c2ccccc2)c1C
- EC50 [5]: 2830 nM

Structure (SMILES): Cc1cc(OCc2c(-c3ccc(Cl)cc3)noc2C(F)(F)F)c(F)cc1CCC(=O)O
- EC50 [5]: 410 nM

Structure (SMILES): Cc1c(CCC(=O)O)ccc(OCc2conc2-c2ccc(Cl)cc2)c1C
- EC50 [4]: 2760 nM
- EC50 [5]: 1440 nM

Structure (SMILES): COc1ccc(-c2noc(C(F)(F)F)c2COc2c(F)cc(CCC(=O)O)cc2F)cc1
- EC50 [5]: 1130 nM

Structure (SMILES): CCc1ccc(-n2cccc2COc2ccc(CCC(=O)O)c(C)c2C)cc1
- EC50 [4]: 750 nM
- EC50 [5]: 100 nM
